Assay results reported in ChEMBL document CHEMBL4387701, “H2depda: An acyclic adjuvant potentiates meropenem activity in vitro against metallo-β-lactamase-producing enterobacterales” (Eur J Med Chem, 2019).
Values after ≈ are worked out from the molar mass of the structure shown. Active and inactive are the calls of the source. The calls are words filed in the database; no cut-off is given here.

Assays:
[1] = target: T1, Metallo-beta-lactamase NDM-4 (Escherichia coli) (UniProt H6WZS9); assay: Inhibition of Escherichia coli isolate 3 NDM4 assessed as potentiation of meropenem-induced antibacterial activity by measuring reduction in meropenem MIC after 24 hrs by broth microdilution method relative to meropenem alone
T1 sequence (whole entry): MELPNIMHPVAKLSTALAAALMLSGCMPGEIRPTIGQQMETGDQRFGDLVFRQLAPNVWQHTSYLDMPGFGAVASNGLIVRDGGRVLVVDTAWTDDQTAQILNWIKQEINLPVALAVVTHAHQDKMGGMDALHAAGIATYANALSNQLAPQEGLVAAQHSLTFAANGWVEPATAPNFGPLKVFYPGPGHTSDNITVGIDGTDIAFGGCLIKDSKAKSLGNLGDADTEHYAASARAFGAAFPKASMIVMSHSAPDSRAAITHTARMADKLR

[2] = Inhibition of Stenotrophomonas maltophilia NDM1 expressed in Escherichia coli BL21 (DE3) expressing measured after 15 minutes at interval of 60 secs
[3] = Hemolytic activity in sheep RBC at 1000 ug/ml measured after 1 hr relative to control; type: ADME, cell-based, Ovis aries, Erythrocyte; settings: sheep red blood cells (erythrocytes), read-out: Activity
HeLa = assay: Cytotoxicity against human HeLa cells assessed as inhibition of growth after 24 hrs by CCK8 assay; type: cell-based
[4] = target: T1, Metallo-beta-lactamase NDM-4 (Escherichia coli); assay: (§1) Inhibition of NDM4 in Escherichia coli isolate 3 assessed as potentiation of meropenem-induced bactericidal activity at 4 times MIC incubated for 24 hrs followed by replating on agar plates for 16 to 18 hrs and measured up to 24 hrs by time kill assay
[5] = test system: Escherichia coli ATCC 25922; assay: Inhibition of IMP-4 in Escherichia coli ATCC 25922 assessed as potentiation of meropenem-induced antibacterial activity by measuring diameter of inhibition zone measured after 18 hrs by agar disk diffusion method
[6] = target: T1, Metallo-beta-lactamase NDM-4 (Escherichia coli); assay: Inhibition of Escherichia coli NDM4 assessed as potentiation of meropenem-induced antibacterial activity by measuring reduction in bacterial growth at 64 ug/mL after 24 hrs by broth microdilution method relative to control
Klebsiella pneumoniae [7] = assay: Effect on growth of Klebsiella pneumoniae isolate 13 after 24 hrs by broth microdilution method; type: organism-based
Escherichia coli [8] = assay: Inhibition of IMP4 in Escherichia coli isolate 11 assessed as potentiation of meropenem-induced antibacterial activity by measuring meropenem MIC after 24 hrs by broth microdilution method (reference value: 32 ug/ml)
Proteus mirabilis [9] = assay: Effect on growth of Proteus mirabilis isolate 19 after 24 hrs by broth microdilution method; type: organism-based
Escherichia coli [10] = assay: Effect on growth of Escherichia coli isolate 14 after 24 hrs by broth microdilution method; type: organism-based
Enterobacter cloacae [11] = assay: Inhibition of NDM1 in Enterobacter cloacae isolate 4 assessed as potentiation of meropenem-induced antibacterial activity by measuring meropenem MIC after 24 hrs by broth microdilution assay (reference value: 640 ug/ml)
Enterobacter cloacae [12] = assay: Effect on growth of Enterobacter cloacae isolate 4 after 24 hrs by broth microdilution assay; type: organism-based
Escherichia coli [13] = assay: Inhibition of IMP4 in Escherichia coli isolate 14 assessed as potentiation of meropenem-induced antibacterial activity by measuring meropenem MIC after 24 hrs by broth microdilution method (reference value: 16 ug/ml)
Escherichia coli [14] = assay: Effect on growth of NDM4-positive Escherichia coli assessed as bacterial growth at 64 ug/mL after 24 hrs by broth microdilution method relative to control; type: organism-based
Enterobacter cloacae [15] = assay: Effect on growth of Enterobacter cloacae isolate 15 after 24 hrs by broth microdilution method; type: organism-based
Klebsiella pneumoniae [16] = assay: Inhibition of IMP4 in Klebsiella pneumoniae isolate 17 assessed as potentiation of meropenem-induced antibacterial activity by measuring meropenem MIC after 24 hrs by broth microdilution method (reference value: 32 ug/ml)
Escherichia coli [17] = assay: Inhibition of NDM1 in Escherichia coli isolate 1 assessed as potentiation of meropenem-induced antibacterial activity by measuring meropenem MIC after 24 hrs by broth microdilution assay (reference value: 1280 ug/ml)
Escherichia coli [18] = assay: Inhibition of IMP4 in Escherichia coli isolate 18 assessed as potentiation of meropenem-induced antibacterial activity by measuring meropenem MIC after 24 hrs by broth microdilution method (reference value: 16 ug/ml)
Citrobacter freundii [19] = assay: Effect on growth of Citrobacter freundii isolate 7 after 24 hrs by broth microdilution assay; type: organism-based
Enterobacter cloacae [20] = assay: Inhibition of IMP4 in Enterobacter cloacae isolate 15 assessed as potentiation of meropenem-induced antibacterial activity by measuring meropenem MIC after 24 hrs by broth microdilution method (reference value: 32 ug/ml)
[21] = target: T1, Metallo-beta-lactamase NDM-4 (Escherichia coli); assay: Inhibition of NDM4 in Escherichia coli ATCC 25922 assessed as potentiation of meropenem-induced antibacterial activity by measuring zone of inhibition by agar disk diffusion method
Escherichia coli [22] = assay: Effect on growth of Escherichia coli isolate 8 after 24 hrs by broth microdilution assay; type: organism-based
[23] = target: T1, Metallo-beta-lactamase NDM-4 (Escherichia coli); assay: as §1, with “activity by measuring bacterial killing in early exponential phase” for “activity”, “64 ug/ml” for “4 times MIC”; settings: TDE = time-dependent effect
Citrobacter freundii [24] = assay: Inhibition of NDM1 in Citrobacter freundii clinical isolate 7 assessed as potentiation of meropenem-induced antibacterial activity by measuring meropenem MIC after 24 hrs by broth microdilution assay
[25] = test system: Escherichia coli ATCC 25922; assay: Inhibition of IMP-4 in Escherichia coli ATCC 25922 assessed as potentiation of meropenem-induced antibacterial activity by measuring zone of inhibition by agar disk diffusion method
Enterobacter cloacae [26] = assay: Inhibition of NDM1 in Enterobacter cloacae isolate 5 assessed as potentiation of meropenem-induced antibacterial activity by measuring meropenem MIC after 24 hrs by broth microdilution assay (reference value: 640 ug/ml)
Escherichia coli [27] = assay: Effect on growth of Escherichia coli isolate 1 after 24 hrs by broth microdilution assay; type: organism-based
Klebsiella pneumoniae [28] = assay: Effect on growth of Klebsiella pneumoniae isolate 10 after 24 hrs by broth microdilution method; type: organism-based
[29] = Cytotoxicity against human HeLa cells assessed as inhibition of growth at 1000 ug/mL after 24 hrs by CCK8 assay relative to control; type: cell-based; settings: read-out: GI
Klebsiella pneumoniae [30] = assay: Inhibition of IMP4 in Klebsiella pneumoniae isolate 10 assessed as potentiation of meropenem-induced antibacterial activity by measuring meropenem MIC after 24 hrs by broth microdilution method (reference value: 64 ug/ml)
Proteus mirabilis [31] = assay: Inhibition of IMP4 in Proteus mirabilis isolate 19 assessed as potentiation of meropenem-induced antibacterial activity by measuring meropenem MIC after 24 hrs by broth microdilution method (reference value: 320 ug/ml)
Enterobacter cloacae [32] = assay: Inhibition of NDM1 in Enterobacter cloacae isolate 6 assessed as potentiation of meropenem-induced antibacterial activity by measuring meropenem MIC after 24 hrs by broth microdilution assay (reference value: 320 ug/ml)
Escherichia coli [33] = assay: Inhibition of NDM1 in Escherichia coli isolate 8 assessed as potentiation of meropenem-induced antibacterial activity by measuring meropenem MIC after 24 hrs by broth microdilution assay (reference value: 320 ug/ml)

| Compound | fold change (FC) [1] | IC50 [2] [µM] | hemolysis at 1 h, 1000 ug/ml [3] [%] | IC50 (HeLa) [mg/L] | inhibition [4] | inhibition zone (IZ) [5] [mm] | inhibition [6] | MIC (Klebsiella pneumoniae [7]) [mg/L] | MIC (Escherichia coli [8]) [mg/L] | MIC (Proteus mirabilis [9]) [mg/L] | MIC (Escherichia coli [10]) [mg/L] | MIC (Enterobacter cloacae [11]) [mg/L] | MIC (Enterobacter cloacae [12]) [mg/L] | MIC (Escherichia coli [13]) [mg/L] | Activity (Escherichia coli [14]) [%] | MIC (Enterobacter cloacae [15]) [mg/L] | MIC (Klebsiella pneumoniae [16]) [mg/L] | MIC (Escherichia coli [17]) [mg/L] | MIC (Escherichia coli [18]) [mg/L] | MIC (Citrobacter freundii [19]) [mg/L] | other results |
| --- | --- | --- | --- | --- | --- | --- | --- | --- | --- | --- | --- | --- | --- | --- | --- | --- | --- | --- | --- | --- | --- |
| O=C(O)c1cccc(CNCCNCc2cccc(C(=O)O)n2)n1 | 41000 | 0.17 | 0.1 | > 1000 | Active | 2 to 5 | Active | 32 (≈ 96.9 µM) | 4 | 32 (≈ 96.9 µM) | 32 (≈ 96.9 µM) | 0.25 | 64 (≈ 194 µM) | 4 | 95 | 32 (≈ 96.9 µM) | 8 | 0.125 | 2 | 32 (≈ 96.9 µM) | MIC (Enterobacter cloacae [20]): 0.5 mg/L; inhibition zone (IZ) [21]: 20.2 mm; MIC (Escherichia coli [22]): 64 mg/L (≈ 194 µM); inhibition [23]: Tde; MIC (Citrobacter freundii [24]): 1 mg/L; inhibition zone (IZ) [25]: 18.3 mm; MIC (Enterobacter cloacae [26]): 0.5 mg/L; MIC (Escherichia coli [27]): 32 mg/L (≈ 96.9 µM); MIC (Klebsiella pneumoniae [28]): 64 mg/L (≈ 194 µM); inhibition at 24 h, 1000 ug/mL [29]: < 50%; MIC (Klebsiella pneumoniae [30]): 0.5 mg/L; MIC (Proteus mirabilis [31]): 2 mg/L; MIC (Enterobacter cloacae [32]): 2 mg/L; MIC (Escherichia coli [33]): 0.0625 mg/L |
| COc1ccc(CN(CCN(Cc2ccc(OC)cc2)Cc2cccc(C(=O)O)n2)Cc2cccc(C(=O)O)n2)cc1 | 41000 | 0.04 | 2.94 | > 1000 | Active | 2 to 5 | Active | 32 (≈ 56.1 µM) | 4 | 32 (≈ 56.1 µM) | 32 (≈ 56.1 µM) | 0.0625 | 64 (≈ 112 µM) | 4 | 95 | 32 (≈ 56.1 µM) | 8 | 0.125 | 2 | 32 (≈ 56.1 µM) | MIC (Enterobacter cloacae [20]): 0.5 mg/L; inhibition zone (IZ) [21]: 21.4 mm; MIC (Escherichia coli [22]): 64 mg/L (≈ 112 µM); inhibition [23]: Tde; MIC (Citrobacter freundii [24]): 1 mg/L; inhibition zone (IZ) [25]: 15.9 mm; MIC (Enterobacter cloacae [26]): 0.5 mg/L; MIC (Escherichia coli [27]): 32 mg/L (≈ 56.1 µM); MIC (Klebsiella pneumoniae [28]): 64 mg/L (≈ 112 µM); inhibition at 24 h, 1000 ug/mL [29]: < 50%; MIC (Klebsiella pneumoniae [30]): 1 mg/L; MIC (Proteus mirabilis [31]): 2 mg/L; MIC (Enterobacter cloacae [32]): 2 mg/L; MIC (Escherichia coli [33]): 0.0625 mg/L |
